Reference: article PMC10492809, “A Bischler-Napieralski and homo-Mannich sequence enables diversified syntheses of sarpagine alkaloids and analogues” (Nature Communications, 2023)
“And” between values parts separate entries of the source, which are not always exact repeats. Identical values can stand only once. Like-named read-outs stand apart in the source and are kept apart here.

Columns and labels:
Format in all cases: cell-based
cancer cell lines = assay: In vitro cancer cell assays (antiproliferation, cell line not given)
Method: (§1) All cell lines were cultured at 37 °C with 5% CO2 in a humidified incubator. HeLa cells were grown in MEM (Gibco) supplemented with 10% fetal bovine serum (FBS, Hyclone) and 1% penicillin/streptomycin (Gibco). MIA PaCa-2, MDA-MB-231, A549, MCF-7, A375 and BEAS-2B cells were grown in DMEM (Gibco) supplemented with 10% FBS and 1% penicillin/streptomycin. CT26, and HCT116 cells were grown in RPMI-1640 supplemented with 10% FBS and 1% penicillin/streptomycin. All cell lines were purchased from the National Collection of Authenticated Cell Cultures (China).
(§2) The antiproliferative activities of the prepared compounds against tested cell lines were evaluated using a standard (MTT)-based colorimetric assay. Cells were plated at a density of 3000 cells/well in 96-well plates and allowed to adhere overnight. Then cells were treated with varying concentrations of synthesized compounds for 72 h. At the end of treatment, 20 μL of thiazolyl blue tetrazolium bromide (MTT) solution (5 mg/mL) was added to each well. Cells were incubated for an additional 4 h at 37 °C and then the medium was removed and replaced with 200 μL of DMSO. The absorbance (OD490) was read on a microplate reader (SpectraMax i3x, Molecular Devices, US). In all experiments, three replicate wells were used for each drug concentration. Each assay was performed at least three times. The IC50 values were calculated by GraphPad Prism 9, which were the mean values derived from three independent experiments.

HCT 116 = assay: MTT cell viability assay, HCT 116
Method: as §1, §2

[1] = test system: lung epithelial BEAS-2B cells; assay: MTT cytotoxicity towards normal cells, BEAS-2B; conditions: for CC50: MTT, 72 h, cytotoxicity towards normal cells, mean of at least three independent experiments; for IC50: source data sheet, single values of three experiments
Method: as §1, §2

MCF-7 = assay: MTT cell viability assay, MCF-7
Method: as §1, §2

MIA PaCa-2 = assay: MTT cell viability assay, MIA PaCa-2
Method: as §1, §2

A549 = assay: MTT cell viability assay, A549
Method: as §1, §2

CT26 = assay: MTT cell viability assay, CT26
Method: as §1, §2

MDA-MB-231 = assay: MTT cell viability assay, MDA-MB-231
Method: as §1, §2

A375 = assay: MTT cell viability assay, A375
Method: as §1, §2

Hela = assay: MTT cell viability assay, Hela
Method: as §1, §2

[2] = MTT cytotoxicity towards normal cells, BEAS-2B; conditions: human; for IC50 at 72 h: BEAS-2B lung epithelial cells (normal cells), source data sheet, single values of three experiments; for CC50 at 72 h: BEAS-2B lung epithelial cells, MTT, cytotoxicity towards normal cells, mean of at least three independent experiments
Method: as §1, §2

[3] = MTT, 72 h, mean of at least three independent experiments, read-out: IC50 HCT 116
[4] = source data sheet, single values of three experiments, read-out: MTT IC50 HCT-116
[5] = MTT, 72 h, mean of at least three independent experiments, read-out: IC50 MCF-7
[6] = source data sheet, single values of three experiments, read-out: MTT IC50 MCF-7
[7] = MTT, 72 h, mean of at least three independent experiments, read-out: IC50 MIA PaCa-2
[8] = source data sheet, single values of three experiments, read-out: MTT IC50 MIA PaCa-2
[9] = MTT, 72 h, mean of at least three independent experiments, read-out: IC50 A549
[10] = source data sheet, single values of three experiments, read-out: MTT IC50 A549
[11] = MTT, 72 h, mean of at least three independent experiments, read-out: IC50 CT26
[12] = source data sheet, single values of three experiments, read-out: MTT IC50 CT-26
[13] = MTT, 72 h, mean of at least three independent experiments, read-out: IC50 MDA-MB-231
[14] = source data sheet, single values of three experiments, read-out: MTT IC50 MDA-MB-231
[15] = MTT, 72 h, mean of at least three independent experiments, read-out: IC50 A375
[16] = source data sheet, single values of three experiments, read-out: MTT IC50 A375
[17] = MTT, 72 h, mean of at least three independent experiments, read-out: IC50 Hela
[18] = source data sheet, single values of three experiments, read-out: MTT IC50 Hela
[19] = Homo sapiens, HCT-116, 72 h, MTT, 72 h, mean of at least three independent experiments, read-out: IC50 HCT 116
[20] = Homo sapiens, HCT-116, source data sheet, single values of three experiments, read-out: MTT IC50 HCT-116
[21] = Homo sapiens, MCF7, 72 h, MTT, 72 h, mean of at least three independent experiments, read-out: IC50 MCF-7
[22] = Homo sapiens, MCF7, source data sheet, single values of three experiments, read-out: MTT IC50 MCF-7
[23] = Homo sapiens, MIA PaCa-2, 72 h, MTT, 72 h, mean of at least three independent experiments, read-out: IC50 MIA PaCa-2
[24] = Homo sapiens, MIA PaCa-2, source data sheet, single values of three experiments, read-out: MTT IC50 MIA PaCa-2
[25] = Homo sapiens, A549, 72 h, MTT, 72 h, mean of at least three independent experiments, read-out: IC50 A549
[26] = Homo sapiens, A549, source data sheet, single values of three experiments, read-out: MTT IC50 A549
[27] = Mus musculus, CT26, 72 h, MTT, 72 h, mean of at least three independent experiments, read-out: IC50 CT26
[28] = Mus musculus, CT26, source data sheet, single values of three experiments, read-out: MTT IC50 CT-26
[29] = Homo sapiens, MDA-MB-231, 72 h, MTT, 72 h, mean of at least three independent experiments, read-out: IC50 MDA-MB-231
[30] = Homo sapiens, MDA-MB-231, source data sheet, single values of three experiments, read-out: MTT IC50 MDA-MB-231
[31] = Homo sapiens, A-375, 72 h, MTT, 72 h, mean of at least three independent experiments, read-out: IC50 A375
[32] = Homo sapiens, A-375, source data sheet, single values of three experiments, read-out: MTT IC50 A375
[33] = Homo sapiens, HeLa, 72 h, MTT, 72 h, mean of at least three independent experiments, read-out: IC50 Hela
[34] = Homo sapiens, HeLa, source data sheet, single values of three experiments, read-out: MTT IC50 Hela

Row | SMILES | IC50 (HCT 116; [3]) | IC50 (HCT 116; [4]) | CC50 [1] | IC50 [1] | IC50 (MCF-7; [5]) | IC50 (MCF-7; [6]) | IC50 (MIA PaCa-2; [7]) | IC50 (MIA PaCa-2; [8]) | IC50 (A549; [9]) | IC50 (A549; [10]) | IC50 (CT26; [11]) | IC50 (CT26; [12]) | IC50 (MDA-MB-231; [13]) | IC50 (MDA-MB-231; [14]) | IC50 (A375; [15]) | IC50 (A375; [16]) | IC50 (Hela; [17]) | IC50 (Hela; [18]) | IC50 (HCT 116; [19]) | IC50 (HCT 116; [20]) | other results
1 | C=C=C1CN2[C@H]3C[C@H]1[C@H](CO)[C@@H]2Cc1c3n(S(=O)(=O)c2ccc(C)cc2)c2ccccc12 [Compound 15ao] |  |  |  |  |  |  |  |  |  |  |  |  |  |  |  |  |  |  |  |  | loss in antiproliferation activity on replacing the aldehyde group (cancer cell lines; SAR statement in words): complete
2 | C=C=C1CN2[C@H]3C[C@H]1[C@H](C=O)[C@@H]2Cc1c3n(S(=O)(=O)c2ccc(C)cc2)c2ccccc12 [Compound 15ad] | 5.25 µM | 6.65 µM and 4.08 µM and 5.02 µM | > 100 µM | > 100 µM | 11.3 µM | 10.5 µM and 14 µM and 9.22 µM | 12.1 µM | 12.3 µM and 14 µM and 10.1 µM | 10.4 µM | 9.24 µM and 12.1 µM and 10 µM | 8.14 µM | 10 µM and 7.29 µM and 7.11 µM | 3.07 µM | 3.01 µM and 3.83 µM and 2.38 µM | 3.57 µM | 5.01 µM and 2.69 µM and 3.01 µM | 4.37 µM | 5.18 µM and 4.35 µM and 3.58 µM |  |  | 
3 | CC=C1CN2C3CC1C(C=O)C2Cc1c3n(C)c2ccccc12 (stereo not drawn) [Na-methylvellosimine (5), Na-methylvellosimine] |  | 22.5 µM and 23 µM |  |  |  | 40.8 µM and 39.9 µM |  | 23.5 µM and 27.3 µM |  | 19 µM and 20.4 µM |  | 20.7 µM and 23.8 µM |  | 22.8 µM and 18.8 µM |  | 25.9 µM and 27.8 µM |  | 21.9 µM and 20.4 µM | 23.6 µM | 25.2 µM | antiproliferation activity in the in vitro cancer cell assays (cancer cell lines; result in words): moderate antiproliferation activity; IC50 at 72 h [2]: > 100 µM; CC50 at 72 h [2]: > 100 µM; IC50 (MCF-7; [21]): 41.8 µM; IC50 (MCF-7; [22]): 44.7 µM; IC50 (MIA PaCa-2; [23]): 26.7 µM; IC50 (MIA PaCa-2; [24]): 29.2 µM; IC50 (A549; [25]): 20.9 µM; IC50 (A549; [26]): 23.1 µM; IC50 (CT26; [27]): 21.4 µM; IC50 (CT26; [28]): 19.6 µM; IC50 (MDA-MB-231; [29]): 20.7 µM; IC50 (MDA-MB-231; [30]): 20.4 µM; IC50 (A375; [31]): 27.6 µM; IC50 (A375; [32]): 29.2 µM; IC50 (Hela; [33]): 22.3 µM; IC50 (Hela; [34]): 24.5 µM
4 | C=C=C1CN2[C@H]3C[C@H]1[C@H](C(=O)C=C)[C@@H]2Cc1c3n(S(=O)(=O)c2ccc(C)cc2)c2ccccc12 [Compound 15aq] | 10.3 µM | 12.2 µM and 8.29 µM and 10.3 µM | > 100 µM | > 100 µM | 24.8 µM | 24.3 µM and 27.2 µM and 22.8 µM | 20.2 µM | 22.2 µM and 19.5 µM and 18.9 µM | 19.2 µM | 22.2 µM and 18.2 µM and 17.1 µM | 15.7 µM | 15.9 µM and 17.2 µM and 14.1 µM | 8.12 µM | 10.1 µM and 8.05 µM and 6.22 µM | 7.48 µM | 9.41 µM and 6.42 µM and 6.61 µM | 10.9 µM | 12.4 µM and 9.52 µM and 10.6 µM |  |  | 
5 | C=C=C1CN2[C@H]3C[C@H]1[C@H](C=O)[C@@H]2Cc1c3n(S(=O)(=O)c2ccc(C)cc2)c2cc(F)ccc12 [Compound 15aj] |  | 20.3 µM and 16.2 µM |  |  |  | 28.1 µM and 29.2 µM |  | 22.1 µM and 26 µM |  | 27.4 µM and 22.6 µM |  | 23.2 µM and 26 µM |  | 11.5 µM and 14.1 µM |  | 11.2 µM and 13.4 µM |  | 16.8 µM and 18.3 µM | 18.9 µM | 20.1 µM | IC50 at 72 h [2]: > 100 µM; CC50 at 72 h [2]: > 100 µM; IC50 (MCF-7; [21]): 30.3 µM; IC50 (MCF-7; [22]): 33.5 µM; IC50 (MIA PaCa-2; [23]): 24.1 µM; IC50 (MIA PaCa-2; [24]): 24.2 µM; IC50 (A549; [25]): 26.2 µM; IC50 (A549; [26]): 28.5 µM; IC50 (CT26; [27]): 24.3 µM; IC50 (CT26; [28]): 23.7 µM; IC50 (MDA-MB-231; [29]): 14 µM; IC50 (MDA-MB-231; [30]): 16.4 µM; IC50 (A375; [31]): 13.4 µM; IC50 (A375; [32]): 15.7 µM; IC50 (Hela; [33]): 18.8 µM; IC50 (Hela; [34]): 21.3 µM
